Measured values: patent publication US12459951B2, “Compounds that interact with RAS superfamily proteins for treatment of cancers, inflammatory diseases, rasopathies, and fibrotic disease” (SHY Therapeutics, LLC, priority 2022, dated 2025)

Legend:
[1] = test system: MAPK p38 phosphorylation; assay: MAPK p38 Activation Assay (western blot), Panc-1; assay type: cell-based, human; conditions: at 10 μM, Panc-1 pancreatic cancer cell line; starred symbols = activation
Experimental: Protocol for MAPK p38 Activation Assay
This assay is referred to as the “MAPK p38 Activation Assay” throughout this application.
Cell lines: Human tumor-derived pancreatic cancer cell line Panc-1 (expressing KRas G12D mutant) was purchased from American Type Culture Collection and grown in complete DMEM-High Glucose medium, supplemented with penicillin (100 U/mL), streptomycin (100 μg/mL), and 10% heat-inactivated FBS at 37° C. in a humidified incubator with 5% CO2.
Method 1: Cells were plated at 350000 cells/well density in a 12-well plate, allowed 3 hours to adhere to the plate, then starved in the appropriate medium in the presence of 0.5% FBS overnight. The small molecules to be tested were added to the cells in the final concentration of 10 μM in the presence of 0.3% DMSO for 6 hours incubation at 37° C. For IC50 value determination, serial dilutions of compounds were added to cells under the same conditions. Next, cells were stimulated with 1.5 ng/ml EGF for 15 minutes then cells were lysed with lysis buffer containing 1% Triton X-100, EDTA, and Halt™ Protease & Phosphatase Inhibitor Cocktail (Thermo Scientific). Protein concentration was assessed by BCA protein assay (Thermo Scientific). Phosphorylation level of MAPK p38 was determined by western blot.
Method 2: Cells were plated at 350000 cells/well density in a 12-well plate in 10% FBS. The next day small molecules to be tested were added to the cells in the final concentration of 10 μM in the presence of 0.3% DMSO for 6 hours incubation at 37° C. For IC50 value determination, serial dilutions of compounds were added to cells under the same conditions. Next, cells were lysed with lysis buffer containing 1% Triton X-100, EDTA, and Halt™ Protease & Phosphatase Inhibitor Cocktail (Thermo Scientific). Protein concentration was assessed by BCA protein assay (Thermo Scientific). Phosphorylation level of MAPK p38 was determined by western blot.
Western blot protocol: Equal amounts of protein (15-50 μg) were separated by SDS-PAGE and transferred to nitrocellulose membranes (Invitrogen by Thermo Fisher Scientific). The membrane was stained with Ponceau S Stain (Boston BioProducts) to verify uniform protein loading. Membranes were blocked with 10% milk and phosphorylation levels of MAPK p38 were assessed by incubating overnight at 4° C. with the following antibody: Phospho-p38 MAPK (Thr180/Tyr182), from Cell Signaling Technology. Then the membranes were incubated with HRP-conjugated secondary antibody (Jackson Immunoresearch, West Grove, PA). Bands were incubated in Amersham ECL Prime Western Blotting Detection Reagent (GE Healthcare) and visualized using the ChemiDoc MP imaging system (Bio-Rad).

[2] = test system: Smad2/Smad3 phosphorylation; assay: Phospho-Smad2/3 Inhibition Assay (western blot), Panc-1; assay type: cell-based, human; conditions: at 10 μM, Panc-1 pancreatic cancer cell line; starred symbols = activation
In short: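 Western blotting of lysates (15-50 μg protein) read phosphorylation of Smad2 Ser465/467 and Smad3 Ser423/425. Before lysis, Panc-1 cells got 1 h of 10 ng/ml TGF-b1 following 3 h compound exposure at 37° C (10 μM final, or serial dilutions for IC50, 0.3% DMSO) after overnight 0.5% FBS starvation.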

| Structure (SMILES) | % inh of MAPK p38 in Panc-1 [1] | % inh of Smad2/3 phosphorylation in Panc-1 [2] |
| --- | --- | --- |
| COc1ccnc(Nc2nc(-c3nccn3C)nn3cc(-c4ccn(CCN)n4)c(C)c23)c1 [Compound 187, 6-(1-(2-Aminoethyl)-1H-pyrazol-3-yl)-N-(4-methoxypyridin-2-yl)-5-methyl-2-(1-methyl-1H-imidazol-2-yl)pyrrolo[2,1-f][1,2,4]triazin-4-amine] | E* (E* = 1-30% activation) | A* (A* = 1-25% activation) |
| CO[C@H]1C[C@H](S(=O)(=O)Nc2nc(-c3nccn3C)nn3cc(-c4ccccc4)c(-c4ccccc4)c23)C1 [Compound 214, (1r,3r)-3-Methoxy-N-(2-(1-methyl-1H-imidazol-2-yl)-5,6-diphenylpyrrolo[2,1-f][1,2,4]triazin-4-yl)cyclobutane-1-sulfonamide] | G (G = 75-99% inhibition) | D (D = 76-100% inhibition) |
| Cn1ccnc1-c1nc(NS(C)(=O)=O)c2c(-c3ccccc3)c(-c3ccccc3)cn2n1 [Compound 212, N-(2-(1-Methyl-1H-imidazol-2-yl)-5,6-diphenylpyrrolo[2,1-f][1,2,4]triazin-4-yl) methanesulfonamide] | F (F = 31-74% inhibition) | C (C = 46-75% inhibition) |
| CO[C@H]1C[C@H](Nc2nc(-c3nccn3C)nn3cc(-c4ccncc4)c(-c4ccccc4)c23)C1 [Compound 199, N-((1r,3r)-3-Methoxycyclobutyl)-2-(1-methyl-1H-imidazol-2-yl)-5-phenyl-6-(pyridin-4-yl)pyrrolo[2,1-f][1,2,4]triazin-4-amine] | E (E = 1-30% inhibition) | B (B = 26-45% inhibition) |
| COc1ccnc(Oc2nc(-c3nccn3C)nn3cc(-c4ccn(C)n4)c(C)c23)c1 [Compound 220, 4-((4-Methoxypyridin-2-yl)oxy)-5-methyl-2-(1-methyl-1H-imidazol-2-yl)-6-(1-methyl-1H-pyrazol-3-yl)pyrrolo[2,1-f][1,2,4]triazine] | F (F = 31-74% inhibition) | C (C = 46-75% inhibition) |
| CO[C@H]1C[C@H](Nc2nc(-c3nccn3C)nn3cc(-c4cccc5c4CCO5)c(-c4ccccc4)c23)C1 [Compound 210, 6-(2,3-Dihydrobenzofuran-4-yl)-N-((1r,3r)-3-methoxycyclobutyl)-2-(1-methyl-1H-imidazol-2-yl)-5-phenylpyrrolo[2,1-f][1,2,4]triazin-4-amine] | G (G = 75-99% inhibition) | D (D = 76-100% inhibition) |
| COCCNc1nc(-c2nccn2C)nn2cc(-c3cccc(OC)c3Cl)c(C)c12 [Compound 16, 6-(2-Chloro-3-methoxyphenyl)-N-(2-methoxyethyl)-5-methyl-2-(1-methyl-1H-imidazol-2-yl)pyrrolo[2,1-f][1,2,4]triazin-4-amine] | H* (H* ≥ 100% activation) | 0 (0 = 0% inhibition) |
| CO[C@@H]1C[C@H]1Nc1nc(-c2nccn2C)nn2cc(-c3cccnc3)c(-c3ccccc3)c12 (racemic) [Compound 190, N-((1R,2R)-2-Methoxycyclopropyl)-2-(1-methyl-1H-imidazol-2-yl)-5-phenyl-6-(pyridin-3-yl)pyrrolo[2,1-f][1,2,4]triazin-4-amine] | E (E = 1-30% inhibition) | A (A = 1-25% inhibition) |
| COCCNc1nc(-c2nccn2C)nn2cc(-c3cccnc3)c(-c3ccccc3)c12 [Compound 195, N-(2-Methoxyethyl)-2-(1-methyl-1H-imidazol-2-yl)-5-phenyl-6-(pyridin-3-yl)pyrrolo[2,1-f][1,2,4]triazin-4-amine] | E* (E* = 1-30% activation) | A* (A* = 1-25% activation) |
| CO[C@H]1CC[C@H](Nc2nc(-c3nccn3C)nn3cc(-c4ccncc4)c(-c4ccccc4)c23)C1 (racemic) [Compound 201, rac N-((1S,3S)-3-Methoxycyclopentyl)-2-(1-methyl-1H-imidazol-2-yl)-5-phenyl-6-(pyridin-4-yl)pyrrolo[2,1-f][1,2,4]triazin-4-amine] | E (E = 1-30% inhibition) | A (A = 1-25% inhibition) |
| COc1ccnc(Nc2nc(-c3nccn3C)nn3cc(-c4ccn(CCNC(=O)CCCC[C@H]5SC[C@H]6NC(=O)N[C@H]65)n4)c(C)c23)c1 [Compound 215, N-(2-(3-(4-((4-methoxypyridin-2-yl)amino)-5-methyl-2-(1-methyl-1H-imidazol-2-yl)pyrrolo[2,1-f][1,2,4]triazin-6-yl)-1H-pyrazol-1-yl)ethyl)-5-((3aR,4R,6aS)-2-oxohexahydro-1H-thieno[3,4-d]imidazol-4-yl)pentanamide] | F (F = 31-74% inhibition) | C (C = 46-75% inhibition) |
| COc1cccc(-c2cn3nc(-c4nccn4C)nc(O)c3c2C)c1Cl [Compound 15, 6-(2-Chloro-3-methoxyphenyl)-5-methyl-2-(1-methyl-1H-imidazol-2-yl)pyrrolo[2,1-f][1,2,4]triazin-4-ol] | H* (H* ≥ 100% activation) | 0 (0 = 0% inhibition) |
| CO[C@H]1C[C@H](Nc2nc(-c3nccn3C)nn3cc(-c4ccc(OCCN)cc4)c(-c4ccccc4)c23)C1.Cl [Compound 208, 6-(4-(2-Aminoethoxy)phenyl)-N-((1r,3r)-3-methoxycyclobutyl)-2-(1-methyl-1H-imidazol-2-yl)-5-phenylpyrrolo[2,1-f][1,2,4]triazin-4-amine hydrochloride salt] | G (G = 75-99% inhibition) | D (D = 76-100% inhibition) |
| CO[C@H]1C[C@H](Nc2nc(-c3nccn3C)nn3cc(-c4cccc(OCCN)c4)c(-c4ccccc4)c23)C1 [Compound 205, 6-(3-(2-Aminoethoxy)phenyl)-N-((1r,3r)-3-methoxycyclobutyl)-2-(1-methyl-1H-imidazol-2-yl)-5-phenylpyrrolo[2,1-f][1,2,4]triazin-4-amine] | G (G = 75-99% inhibition) | D (D = 76-100% inhibition) |
| COC1CCCN(c2nc(-c3ccccn3)nn3cc(-c4ccn(C(C)C)n4)c(C)c23)C1 (racemic) [Compound 12, rac 6-(1-Isopropyl-1H-pyrazol-3-yl)-4-(3-methoxypiperidin-1-yl)-5-methyl-2-(pyridin-2-yl)pyrrolo[2,1-f][1,2,4]triazine] | H* (H* ≥ 100% activation) | 0 (0 = 0% inhibition) |
| COc1cc(Nc2nc(-c3ccccn3)nn3cc(-c4ccn(C(C)C)n4)c(C)c23)ncn1 [Compound 13, 6-(1-Isopropyl-1H-pyrazol-3-yl)-N-(6-methoxypyrimidin-4-yl)-5-methyl-2-(pyridin-2-yl)pyrrolo[2,1-f][1,2,4]triazin-4-amine] | H* (H* ≥ 100% activation) | 0 (0 = 0% inhibition) |
